Results: BindingDB's records for doi:10.7270/Q2319T8T (The Scripps Research Institute Molecular Screening Center, 2007)
Where a name gives a salt, the structure may show the parent alone.

Molecular target: Steroidogenic factor 1 (Homo sapiens, UniProt Q13285)
Assay: SF-1 inhibitor potency, dose response, cell-based, CHO-K1, Gal4-SF-1 LBD, luciferase luminescence (AID 600)
[1] = inactive by the depositor's call

Chain of Steroidogenic factor 1 (Q13285 whole entry, the tested form may be a part): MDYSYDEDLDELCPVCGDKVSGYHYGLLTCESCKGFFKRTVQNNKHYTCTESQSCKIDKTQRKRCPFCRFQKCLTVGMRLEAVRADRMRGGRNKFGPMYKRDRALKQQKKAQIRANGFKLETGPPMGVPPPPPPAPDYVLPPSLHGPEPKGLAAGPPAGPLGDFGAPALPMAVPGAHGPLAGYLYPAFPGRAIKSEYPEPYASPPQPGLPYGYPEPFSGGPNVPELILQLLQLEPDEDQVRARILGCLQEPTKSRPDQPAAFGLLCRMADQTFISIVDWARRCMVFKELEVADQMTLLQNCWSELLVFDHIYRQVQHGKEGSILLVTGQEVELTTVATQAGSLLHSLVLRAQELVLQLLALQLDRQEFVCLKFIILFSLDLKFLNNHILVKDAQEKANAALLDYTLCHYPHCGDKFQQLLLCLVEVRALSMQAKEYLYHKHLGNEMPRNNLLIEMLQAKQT

SMILES: CCOc1ccc(C2=Nn3c(nnc3-c3ccccc3OC)SC2)cc1 [6-(4-ethoxyphenyl)-3-(2-methoxyphenyl)-7H-[1,2,4]triazolo[3,4-b][1,3,4]thiadiazine]
- IC50: > 0.407 µM

SMILES: CCc1ccc(-c2cn3nc(C)c(C)nc3n2)cc1 [6-(4-ethylphenyl)-2,3-dimethyl-imidazo[1,2-b][1,2,4]triazine]
- IC50: 3.21 µM

SMILES: CN1Cc2cc(C(=O)c3cc(Cl)cc(CSc4ncccn4)c3O)cnc2NC1=O [6-[5-chloranyl-2-oxidanyl-3-(pyrimidin-2-ylsulfanylmethyl)phenyl]carbonyl-3-methyl-1,4-dihydropyrido[2,3-d]pyrimidin-2-one]
- IC50 [1]: 12.6 µM

SMILES: CC(C)Cn1c(N)c(C(=O)CSc2ccc3c(c2)OCCO3)c(=O)n(C)c1=O [6-amino-5-[2-(2,3-dihydro-1,4-benzodioxin-6-ylsulfanyl)acetyl]-3-methyl-1-(2-methylpropyl)pyrimidine-2,4-dione]
- IC50 [1]: 13.4 µM

SMILES: Cc1ccc(Nc2cc(C)nn2-c2nc(C)cc(O)n2)cc1 [6-methyl-2-[3-methyl-5-(4-methylanilino)pyrazol-1-yl]-1H-pyrimidin-4-one]
- IC50: 4.32 µM

SMILES: Cc1ccc2nc(-c3ccccc3)cn2c1 [6-methyl-2-phenyl-imidazo[1,2-a]pyridine;hydrobromide]
- IC50: 1.96 µM

SMILES: Cn1c(-c2ccccc2)cc2c3no[n+]([O-])c3ccc21 [6-methyl-3-oxidanidyl-7-phenyl-pyrrolo[2,3-g][2,1,3]benzoxadiazol-3-ium]
- IC50 [1]: 15 µM

SMILES: c1csc(CCNc2ncnc3sc4c(c23)CCC4)c1 [7,8-dihydro-6H-cyclopenta[4,5]thieno[1,2-c]pyrimidin-1-yl-[2-(2-thienyl)ethyl]amine]
- IC50 [1]: 11.1 µM

SMILES: COc1ccc(Cl)c(Cn2c(NCc3ccco3)nc3c2c(=O)n(C)c(=O)n3C)c1 [7-(2-chloro-5-methoxy-benzyl)-8-(2-furfurylamino)-1,3-dimethyl-xanthine]
- IC50: > 99 µM

SMILES: CCNc1nc2c(c(=O)n(C)c(=O)n2C)n1Cc1ccc(Cl)cc1 [7-(4-chlorobenzyl)-8-(ethylamino)-1,3-dimethyl-xanthine]
- IC50: > 3.67 µM

SMILES: Cn1c(=O)c2c(nc(NCc3ccco3)n2C/C=C/c2ccccc2)n(C)c1=O [7-[(E)-cinnamyl]-8-(2-furfurylamino)-1,3-dimethyl-xanthine]
- IC50 [1]: 16.9 µM

SMILES: COc1cccc(Cn2c(NCc3ccco3)nc3c2c(=O)n(C)c(=O)n3C)c1 [8-(2-furanylmethylamino)-7-[(3-methoxyphenyl)methyl]-1,3-dimethylpurine-2,6-dione]
- IC50 [1]: 25.4 µM

SMILES: COc1cccc(N2CCN(c3ncnc4c3[nH]c3ccc(F)cc34)CC2C)c1 (centres undefined) [8-fluoranyl-4-[4-(3-methoxyphenyl)-3-methyl-piperazin-1-yl]-5H-pyrimido[5,4-b]indole]
- IC50: 2.07 µM

SMILES: COc1ccc2[nH]c3nc(SC(C)C)nnc3c2c1 [8-methoxy-3-propan-2-ylsulfanyl-5H-[1,2,4]triazino[5,6-b]indole]
- IC50: 9.03 µM

SMILES: Cc1nnc(SC(=O)N2c3ccccc3Sc3ccccc32)s1 [10-phenothiazinecarbothioic acid S-(5-methyl-1,3,4-thiadiazol-2-yl) ester]
- IC50: 5.38 µM

SMILES: O=C(OC1CCOC1=O)c1ccc(-c2nc3ccccc3s2)s1 (centres undefined) [(2-oxidanylideneoxolan-3-yl) 5-(1,3-benzothiazol-2-yl)thiophene-2-carboxylate]
- IC50: 5.75 µM

SMILES: O=C1C(=CNc2ccc3c(c2)OCO3)CCc2ccccc21 [(2E)-2-[(1,3-benzodioxol-5-ylamino)methylene]tetralin-1-one]
- IC50 [1]: 12.3 µM

SMILES: CCCCOc1ccc(OC(=O)c2cccnc2)cc1 [(4-butoxyphenyl) pyridine-3-carboxylate]
- IC50 [1]: 15.4 µM

SMILES: COc1cccc2sc(Nc3nc(-c4ccccn4)cs3)nc12 [(4-methoxy-1,3-benzothiazol-2-yl)-[4-(2-pyridyl)thiazol-2-yl]amine]
- IC50: 4.48 µM

SMILES: COc1ccccc1-c1nnc(Nc2nc3c(OC)cccc3s2)o1 [(4-methoxy-1,3-benzothiazol-2-yl)-[5-(2-methoxyphenyl)-1,3,4-oxadiazol-2-yl]amine]
- IC50: 6.52 µM

SMILES: COc1ccccc1-c1nnc2n1N=C(c1ccc(O)c(O)c1)CS2 [(4E)-4-[3-(2-methoxyphenyl)-5H-[1,2,4]triazolo[3,4-b][1,3,4]thiadiazin-6-ylidene]-2-oxidanyl-cyclohexa-2,5-dien-1-one]
- IC50: 10.4 µM

SMILES: CN=c1scc(C)n1N=Cc1ccc(O)cc1O [(4E)-4-[[(4-methyl-2-methylimino-1,3-thiazol-3-yl)amino]methylidene]-3-oxidanyl-cyclohexa-2,5-dien-1-one]
- IC50: 15.2 µM

SMILES: COc1ccc(CCNc2c(C)c(C)nc3ncnn23)cc1 [(5,6-Dimethyl-[1,2,4]triazolo[1,5-a]pyrimidin-7-yl)-[2-(4-methoxy-phenyl)-ethyl]-amine]
- IC50 [1]: 15.1 µM

SMILES: CCN1C(=O)/C(=C2/Sc3ccc(OC)cc3N2C)S/C1=N\c1cccc(O)c1 [(5Z)-3-ethyl-2-(3-hydroxyphenyl)imino-5-(5-methoxy-3-methyl-1,3-benzothiazol-2-ylidene)-1,3-thiazolidin-4-one]
- IC50: 7.66 µM

SMILES: CCc1c(C)nc2ncnn2c1NCCc1ccc(OC)cc1 [(6-Ethyl-5-methyl-[1,2,4]triazolo[1,5-a]pyrimidin-7-yl)-[2-(4-methoxy-phenyl)-ethyl]-amine]
- IC50: > 11 µM

SMILES: CCc1ccc2oc(-c3cc(N)ccc3O)nc2c1 [(6E)-4-amino-6-(5-ethyl-3H-1,3-benzoxazol-2-ylidene)-1-cyclohexa-2,4-dienone]
- IC50: > 3.67 µM

SMILES: CC(C)c1ccc2oc(-c3cc(N)ccc3O)nc2c1 [(6E)-4-amino-6-(5-isopropyl-3H-1,3-benzoxazol-2-ylidene)cyclohexa-2,4-dien-1-one]
- IC50: 10.6 µM

SMILES: CCc1ccc2oc(-c3cc(N=Cc4cccc(OC)c4O)ccc3O)nc2c1 [(6E)-6-[[[(3E)-3-(5-ethyl-3H-1,3-benzoxazol-2-ylidene)-4-keto-cyclohexa-1,5-dien-1-yl]amino]methylene]-2-methoxy-cyclohexa-2,4-dien-1-one]
- IC50: 5.66 µM

SMILES: COc1cccc2c1C(=O)c1c(O)c3c(c(O)c1C2=O)C[C@@](O)(C(C)=O)C[C@@H]3O[C@H]1C[C@H](N)[C@H](O)[C@H](C)O1 [(7S,9S)-9-acetyl-7-[(2R,4S,5S,6S)-4-amino-5-hydroxy-6-methyloxan-2-yl]oxy-6,9,11-trihydroxy-4-methoxy-8,10-dihydro-7H-tetracene-5,12-dione;hydrochloride]
- IC50: 0.54 µM

SMILES: C[C@H]1CCCC=CC2C[C@H](O)CC2[C@H](O)C=CC(=O)O1 (stereo partly drawn) [(7S,12R,15S)-12,15-dihydroxy-7-methyl-8-oxabicyclo[11.3.0]hexadeca-2,10-dien-9-one]
- IC50: 5.61 µM

SMILES: N#CC1C(=N)C(C#N)(C#N)[C@H](c2ccncc2)[C@H]2CN(C(=O)OCc3ccccc3)CC=C12 (stereo partly drawn) [(8S,8aR)-6-amino-5,7,7-tricyano-8-(4-pyridyl)-1,3,8,8a-tetrahydroisoquinoline-2-carboxylic acid benzyl ester]
- IC50: 14.7 µM

SMILES: CCn1c2ccccc2c2cc(Nc3cc(C)nc4ncnn34)ccc21 [(9-ethylcarbazol-3-yl)-(5-methyl-[1,2,4]triazolo[1,5-a]pyrimidin-7-yl)amine]
- IC50: 6.19 µM

SMILES: Cc1ccc(C(=O)CC=Nc2ccccn2)cc1 [(E)-1-(4-methylphenyl)-3-(2-pyridinylamino)-2-propen-1-one]
- IC50: > 11 µM

SMILES: CN(C)c1ccc(N=CCC(=O)c2ccccc2)cc1 [(E)-3-[4-(dimethylamino)anilino]-1-phenyl-2-propen-1-one]
- IC50: > 11 µM
